Species on record: Rattus norvegicus
Assay: Open TG-GATES - Regimen: Daily Repeat
Format: toxicity, organism-based, Sprague-Dawley
Parameters: regimen Daily Repeat, gender Male, age 6 weeks
Conditions: in vivo, po, route gavage; for APTT / Bas / Eos / Fbg / Hb / Ht / Lym / MCH / MCHC / MCV / Mono / Neu / PT / Plat / RBC / Ret / WBC: tissue Blood; for KIDNEY_L / KIDNEY_R / KIDNEY_TOTAL: tissue Kidney; for LIVER: tissue Liver; for A/G / ALP / ALT / AST / BUN / CRE / Ca / Cl / DBIL / GLC / IP / K / LDH / Na / PL / RALB / TBIL / TC / TG / TP / gamma-GTP: tissue Plasma
[1] = 0 mg/kg, 72 h, dose level Control, time 3 day
[2] = 0 mg/kg, […], dose level Control, time 7 day
[3] = 0 mg/kg, […], dose level Control, time 14 day
[4] = 0 mg/kg, […], dose level Control, time 28 day
[5] = 1 mg/kg, 72 h, dose level Middle, time 3 day

CN1C(C(=O)Nc2ccccn2)=C(O)c2sc(Cl)cc2S1(=O)=O [LORNOXICAM]
TERMINAL_BW [1]: 242.5 g
APTT [1]: 20.7 s
Bas [1]: 0.4%
Eos [1]: 1%
Fbg [1]: 223.4 mg/dL
Hb [1]: 12.9 g/dL
Ht [1]: 38.6%
Lym [1]: 79%
MCH [1]: 21 pg
MCHC [1]: 33.5%
MCV [1]: 62.6 fL
Mono [1]: 2.6%
Neu [1]: 16.2%
PT [1]: 11.7 s
Plat [1]: 126.1 x10_4/uL
RBC [1]: 617 x10_4/ul
Ret [1]: 6.1%
WBC [1]: 110.2 x10_2/uL
KIDNEY_L [1]: 1 g
KIDNEY_R [1]: 1 g
KIDNEY_TOTAL [1]: 2.1 g
LIVER [1]: 10.9 g
A/G [1]: 1.7
ALP [1]: 907.8 IU/L
ALT [1]: 46.2 IU/L
AST [1]: 91.2 IU/L
BUN [1]: 14.4 mg/dL
CRE [1]: 0.4 mg/dL
Ca [1]: 10.6 mg/dL
Cl [1]: 104.2 meq/L
DBIL [1]: 0.094 mg/dL
GLC [1]: 222.6 mg/dL
IP [1]: 6.8 mg/dL
K [1]: 4.1 meq/L
LDH [1]: 253.8 IU/L
Na [1]: 141.6 meq/L
PL [1]: 145.8 mg/dL
RALB [1]: 3.5 g/dL
TBIL [1]: 0.1 mg/dL
TC [1]: 74.2 mg/dL
TG [1]: 97.6 mg/dL
TP [1]: 5.6 g/dL
gamma-GTP [1]: 1.2 IU/L
TERMINAL_BW [2]: 279.8 g
TERMINAL_BW [3]: 335.2 g
TERMINAL_BW [4]: 380.8 g
APTT [2]: 20.1 s
Bas [2]: 0.6%
Eos [2]: 0.8%
Fbg [2]: 230.2 mg/dL
Hb [2]: 13.8 g/dL
Ht [2]: 40.8%
Lym [2]: 82%
MCH [2]: 20.7 pg
MCHC [2]: 33.7%
MCV [2]: 61.4 fL
Mono [2]: 2.2%
Neu [2]: 13.8%
PT [2]: 11.4 s
Plat [2]: 132.2 x10_4/uL
RBC [2]: 664.6 x10_4/ul
Ret [2]: 4.8%
WBC [2]: 106.9 x10_2/uL
APTT [3]: 21.1 s
Bas [3]: 0.6%
Eos [3]: 1%
Fbg [3]: 221.2 mg/dL
Hb [3]: 14 g/dL
Ht [3]: 41%
Lym [3]: 82%
MCH [3]: 20.3 pg
MCHC [3]: 34%
MCV [3]: 59.6 fL
Mono [3]: 2.4%
Neu [3]: 14.2%
PT [3]: 11.5 s
Plat [3]: 121.8 x10_4/uL
RBC [3]: 687.4 x10_4/ul
Ret [3]: 3.7%
WBC [3]: 100 x10_2/uL
APTT [4]: 21.4 s
Bas [4]: 0.6%
Eos [4]: 1.2%
Fbg [4]: 223.4 mg/dL
Hb [4]: 15.8 g/dL
Ht [4]: 45.2%
Lym [4]: 81.6%
MCH [4]: 20.1 pg
MCHC [4]: 35%
MCV [4]: 57.6 fL
Mono [4]: 1.8%
Neu [4]: 14.2%
PT [4]: 11.7 s
Plat [4]: 108.5 x10_4/uL
RBC [4]: 784.8 x10_4/ul
Ret [4]: 2%
WBC [4]: 101.8 x10_2/uL
KIDNEY_L [2]: 1.2 g
KIDNEY_R [2]: 1.2 g
KIDNEY_TOTAL [2]: 2.4 g
KIDNEY_L [3]: 1.3 g
KIDNEY_R [3]: 1.3 g
KIDNEY_TOTAL [3]: 2.6 g
KIDNEY_L [4]: 1.4 g
KIDNEY_R [4]: 1.3 g
KIDNEY_TOTAL [4]: 2.7 g
LIVER [2]: 13 g
LIVER [3]: 14.5 g
LIVER [4]: 14.4 g
A/G [2]: 1.7
ALP [2]: 1004.8 IU/L
ALT [2]: 33.2 IU/L
AST [2]: 68.4 IU/L
BUN [2]: 14 mg/dL
CRE [2]: 0.4 mg/dL
Ca [2]: 10.8 mg/dL
Cl [2]: 102.8 meq/L
DBIL [2]: 0.1 mg/dL
GLC [2]: 206 mg/dL
IP [2]: 6.7 mg/dL
K [2]: 4 meq/L
LDH [2]: 206 IU/L
Na [2]: 140.4 meq/L
PL [2]: 150 mg/dL
RALB [2]: 3.6 g/dL
TBIL [2]: 0.2 mg/dL
TC [2]: 70.8 mg/dL
TG [2]: 132.8 mg/dL
TP [2]: 5.7 g/dL
gamma-GTP [2]: 1.2 IU/L
A/G [3]: 1.5
ALP [3]: 781.8 IU/L
ALT [3]: 35.6 IU/L
AST [3]: 66.6 IU/L
BUN [3]: 15.4 mg/dL
CRE [3]: 0.4 mg/dL
Ca [3]: 10.7 mg/dL
Cl [3]: 104.4 meq/L
DBIL [3]: 0.096 mg/dL
GLC [3]: 195 mg/dL
IP [3]: 6.9 mg/dL
K [3]: 4 meq/L
LDH [3]: 196.4 IU/L
Na [3]: 141.2 meq/L
PL [3]: 148.6 mg/dL
RALB [3]: 3.5 g/dL
TBIL [3]: 0.2 mg/dL
TC [3]: 72.8 mg/dL
TG [3]: 118.4 mg/dL
TP [3]: 5.8 g/dL
gamma-GTP [3]: 0.8 IU/L
A/G [4]: 1.4
ALP [4]: 637.4 IU/L
ALT [4]: 33.6 IU/L
AST [4]: 67.4 IU/L
BUN [4]: 15.8 mg/dL
CRE [4]: 0.5 mg/dL
Ca [4]: 10.1 mg/dL
Cl [4]: 103.8 meq/L
DBIL [4]: 0.1 mg/dL
GLC [4]: 198.2 mg/dL
IP [4]: 6.1 mg/dL
K [4]: 4 meq/L
LDH [4]: 173.2 IU/L
Na [4]: 141.6 meq/L
PL [4]: 142.8 mg/dL
RALB [4]: 3.6 g/dL
TBIL [4]: 0.2 mg/dL
TC [4]: 67.6 mg/dL
TG [4]: 148.2 mg/dL
TP [4]: 6.1 g/dL
gamma-GTP [4]: 1.2 IU/L
TERMINAL_BW [5]: 239.1 g
APTT [5]: 18.8 s
Bas [5]: 0.8%
Eos [5]: 0.8%
Fbg [5]: 276 mg/dL
Hb [5]: 11.8 g/dL
Ht [5]: 35.5%
Lym [5]: 69.8%
MCH [5]: 21 pg
MCHC [5]: 33.2%
MCV [5]: 63.4 fL
Mono [5]: 3.8%
Neu [5]: 24.4%
PT [5]: 11.3 s
Plat [5]: 122.1 x10_4/uL
RBC [5]: 561.4 x10_4/ul
Ret [5]: 6.3%
WBC [5]: 144.7 x10_2/uL
KIDNEY_L [5]: 1.1 g
KIDNEY_R [5]: 1.1 g
KIDNEY_TOTAL [5]: 2.2 g
LIVER [5]: 11.7 g
A/G [5]: 1.4
ALP [5]: 872.4 IU/L
ALT [5]: 37.2 IU/L
AST [5]: 65 IU/L
BUN [5]: 12 mg/dL
CRE [5]: 0.4 mg/dL
Ca [5]: 10.4 mg/dL
Cl [5]: 104.4 meq/L
DBIL [5]: 0.098 mg/dL
GLC [5]: 220.2 mg/dL
IP [5]: 7.4 mg/dL
K [5]: 4.5 meq/L
LDH [5]: 198.6 IU/L
Na [5]: 140.8 meq/L
PL [5]: 150 mg/dL
RALB [5]: 3 g/dL
TBIL [5]: 0.2 mg/dL
TC [5]: 74 mg/dL
TG [5]: 154 mg/dL
TP [5]: 5.2 g/dL
gamma-GTP [5]: 1.6 IU/L
TERMINAL_BW (1 mg/kg, […], dose level Middle, time 7 day): 275.8 g

Source: ChEMBL document CHEMBL3885861, “Open TG-GATES”
